The values below are quoted from earlier work in patent US6777002B1, “Process for microencapsulation of water soluble substances” (Debio Recherche Pharmaceutique S.A., priority 1999, dated 2004).

Each structure is given as a SMILES string.

The conditions of the data set: in water at 20-25° C.

For the molecule `CCOC(C)=O` [ethyl acetate], the solubility in water was 8.70 % (by weight).

In the case of `ClCCl` [dichloromethane], the solubility in water is listed as 1.32 % (by weight).
